Results reported in patent publication US9557338B2 (SIGNAL PHARMACEUTICALS, LLC, priority 2012, dated 2017).
Where two headings read alike, the source gives them in different places.

Legend:
[1] = system: GSK-3β; experiment: MSD assay, GSK-3β phosphorylation in cell lysates; assay type: cell-based
[2] = system: Phospho-p70S6K (T389); experiment: MSD assay, phospho-p70S6K (T389) in cell lysates; assay type: cell-based
Protocol: Determination of Phospho-p70S6K (T389) in Cell Lysates.
MSD® biomarker detection assays provide a rapid and convenient method for measuring the total and phosphorylated levels of protein targets within a single small-volume sample. In the assay, an antibody for a specific protein target is coated on one electrode (or spot) per well. The samples (cell lysates) are added to the well with a solution containing the detection antibody labeled with an electrochemiluminescent (ECL) compound, MSD SULFOTAG™ label, over the course of one or more incubation periods. The total protein present in the sample binds to the capture antibodies immobilized on the working electrode surface; recruitment of the labeled detection antibody by bound phospho-p70S6K completes the sandwich. MSD Read Buffer that provides the appropriate chemical environment for ECL is added and the plate is read using an MSD SECTOR™ Imager. Inside the SECTOR Imager, a voltage is applied to the plate electrodes which cause the labels bound to the electrode surface to emit light. The instrument measures intensity of the emitted light to afford a quantitative measure of the amount of phosphorylated protein present in the sample.
Cells were plated in 96-well flat bottom plates at the required density determined for each cell line and the cells were allowed to equilibrate at 37° C., 5% CO2 overnight. The following day, the cells were treated with Compound 1 over a range of concentrations for one hour in 5% CO2 at 37° C. After the incubation period, the culture medium was removed carefully with an aspirator. The plate was placed on ice and 50 μL of 1× Tris Lysis Buffer were added to each well. The plate was placed on a shaker at 4° C. for one hour to lyse the cells. At that point, the plate was either frozen at −80° C. for later analysis or immediately assayed for phosphoproteins as described below. To monitor interassay variability, Compound 1 was compared among all plates as a reference standard.
The assay plate was incubated with 150 μL of MSD Blocking Buffer for one hour with shaking at room temperature. The plates were washed 3 times with Tris Wash Buffer. Then 35 μL of cell lysate was added to the wells and incubated for one hour with shaking at room temperature. The solution was removed from the wells and the plate was washed 3 times with wash buffer. Twenty-five microliters of the appropriate antibody solution was then incubated for one hour with shaking at room temperature. The solution was removed from the wells and the plate was washed 3 times with wash buffer. Then 150 μL of 1×MSD Read Buffer T was added to each well. The plate was read on the SECTOR Imager plate reader.

[3] = Homo sapiens, HCT-116, HCT116 cell line, IGF, read-out: MSD GSK-3β (IGF)
[4] = Homo sapiens, U-87 MG, U87MG cell line, read-out: MSD GSK-3β
[5] = Homo sapiens, HCT-116, HCT116 cell line, IGF, read-out: MSD p70S6K (IGF)
[6] = Homo sapiens, U-87 MG, U87MG cell line, read-out: MSD p70S6K
[7] = PC3 cell line, read-out: MSD GSK-3β
[8] = PC3 cell line, read-out: MSD p70S6K

Structure (SMILES)	IC50 [1, 7] [nM]	IC50 [2, 8] [nM]	also measured
CCN1C(=O)CNc2ncc(-c3ccc(-c4nnc[nH]4)nc3C)nc21 [A-12, 1-ethyl-7-(2-methyl-6-(4H-1,2,4-triazol-3-yl)pyridin-3-yl)-3,4-dihydropyrazino[2,3-b]pyrazin-2(1H)-one]			IC50 [1, 3]: > 2000 nM; IC50 [1, 4]: > 2000 nM; IC50 [2, 5]: 846 nM; IC50 [2, 6]: 252 nM
CC(C)N1C(=O)CNc2ncc(-c3ccc(-c4ncn[nH]4)nc3)nc21 [C-138]	181	40	
Cc1cc(-c2nc[nH]n2)ncc1-c1cnc2c(n1)N(CC1CCOCC1)CC(=O)N2 [C-164]	275	1	
Cc1cc(-c2nc[nH]n2)c(F)cc1-c1cnc2c(n1)N(CC1CCC(O)CC1)C(=O)CN2 (stereo not shown) [C-142]	> 500	18	
Cc1cc(C(N)=O)ncc1-c1cnc2c(n1)N(C(C)C)C(=O)CN2 [C-118]	3930	170	
Cc1cc(-c2nc[nH]n2)c(F)cc1-c1cnc2c(n1)N(C1CCC(O)CC1)CC(=O)N2 (stereo not shown) [C-123]	> 500	13	
O=C1CN(C2CCC(O)CC2)c2nc(-c3ccc(-c4nc[nH]n4)nc3)cnc2N1 (stereo not shown) [C-153]	> 500	> 500	
COC1CCC(CN2C(=O)CNc3ncc(-c4cc(F)c(-c5nc[nH]n5)cc4C)nc32)CC1 (stereo not shown) [C-167]	< 1.5	< 1.5	
O=C1CNc2ncc(-c3cccc4[nH]cnc34)nc2N1CCC1CCOCC1 [C-162]	> 5000	4750	
CO[C@H]1CC[C@@H](CN2CC(=O)Nc3ncc(-c4cc(F)c(-c5nc[nH]n5)cc4C)nc32)CC1 [C-160]	> 500	< 1.5	
CCN1CC(=O)Nc2ncc(-c3cc(F)c(-c4nc[nH]n4)cc3C)nc21 [C-119]	323	10	
Nc1ncc(-c2cnc3c(n2)N(CCC2CCOCC2)C(=O)CN3)cn1 [C-116]	3990	303	
CC(C)N1CC(=O)Nc2ncc(-c3ccc(-c4nc[nH]n4)nc3)nc21 [C-134]	> 500	172	
Cc1cc(-c2nc[nH]n2)c(F)cc1-c1cnc2c(n1)N([C@H]1CC[C@@H](O)CC1)C(=O)CN2 [C-155]	240	40	
COC1CCC(CN2CC(=O)Nc3ncc(-c4cc(F)c(-c5nc[nH]n5)cc4C)nc32)CC1 (stereo not shown) [C-163]	> 500	> 500	
Cc1cc(-c2nc[nH]n2)c(F)cc1-c1cnc2c(n1)N([C@H]1CC[C@H](O)CC1)C(=O)CN2 [C-130]	12	< 0.835	
COC1CCC(N2CC(=O)Nc3ncc(-c4ccc(-c5ncn[nH]5)nc4)nc32)CC1 (stereo not shown) [C-146]	> 500	12	
CO[C@H]1CC[C@H](N2C(=O)CNc3ncc(-c4ccc(-c5nnc[nH]5)nc4C)nc32)CC1 [A-11, 1-((1r,4r)-4-methoxycyclohexyl)-7-(2-methyl-6-(4H-1,2,4-triazol-3-yl)pyridin-3-yl)-3,4-dihydropyrazino[2,3-b]pyrazin-2(1H)-one]			IC50 ([1]; HCT116 cell line, IGF, read-out: MSD GSK-3β (IGF)): 202 nM; IC50 ([1]; U87MG cell line, read-out: MSD GSK-3β): 479 nM; IC50 ([2]; HCT116 cell line, IGF, read-out: MSD p70S6K (IGF)): 157 nM; IC50 ([2]; U87MG cell line, read-out: MSD p70S6K): 93.1 nM
COCCN1CC(=O)Nc2ncc(-c3cc(F)c(-c4nc[nH]n4)cc3C)nc21 [C-131]	> 500	118	
CCN1C(=O)CNc2ncc(-c3cc(F)c(-c4nc[nH]n4)cc3C)nc21 [C-127]	33	4	
COC1CCC(N2C(=O)CNc3ncc(-c4cc(F)c(-c5ncn[nH]5)cc4C)nc32)CC1 (stereo not shown) [C-137]	394	52	
COC1CCC(N2CC(=O)Nc3ncc(-c4cc(F)c(-c5nc[nH]n5)cc4C)nc32)CC1 (stereo not shown) [C-148]	65	< 1.5	
O=C1CN(C2CCOCC2)c2nc(-c3ccc(-c4ncn[nH]4)nc3)cnc2N1 [C-125]	> 500	73	
Cc1nc(-c2nnc[nH]2)ccc1-c1cnc2c(n1)N(C(C)C)C(=O)CN2 [A-13, 1-isopropyl-7-(2-methyl-6-(4H-1,2,4-triazol-3-yl)pyridin-3-yl)-3,4-dihydropyrazino[2,3-b]pyrazin-2(1H)-one]			IC50 [1, 3]: > 2000 nM; IC50 [1, 4]: > 2000 nM; IC50 [2, 5]: 941 nM; IC50 [2, 6]: 351 nM
CCN1C(=O)CNc2ncc(-c3ccc(-c4ncn[nH]4)nc3)nc21 [C-150]	> 500	38	
O=C1CN(CC2CCC(O)CC2)c2nc(-c3ccc(-c4nc[nH]n4)nc3)cnc2N1 (stereo not shown) [C-154]	> 5000	1520	
COC1CCC(CN2C(=O)CNc3ncc(-c4ccc(-c5nc[nH]n5)nc4)nc32)CC1 (stereo not shown) [C-159]	> 500	6	

Structure (SMILES)	IC50 [1, 7] [nM]	IC50 [2, 8] [nM]	also measured
O=C1CNc2ncc(-c3ccnc(O)c3)nc2N1CCC1CCOCC1 [C-126]	1140	480	
O=C1CN([C@H]2CC[C@H](O)CC2)c2nc(-c3ccc(-c4nc[nH]n4)nc3)cnc2N1 [C-144]	> 500	> 500	
COCCN1C(=O)CNc2ncc(-c3cc(F)c(-c4nc[nH]n4)cc3C)nc21 [C-129]	> 500	1	
COC1CCC(N2CC(=O)Nc3ncc(-c4cc(F)c(-c5ncn[nH]5)cc4C)nc32)CC1 (stereo not shown) [C-132]	> 500	222	
COCCN1C(=O)CNc2ncc(-c3ccc(-c4cc[nH]n4)cc3)nc21 [C-112]	> 500	36	
CCN1CC(=O)Nc2ncc(-c3ccc(-c4nc[nH]n4)nc3)nc21 [C-124]	> 500	289	
Cc1cc(-c2nc[nH]n2)c(F)cc1-c1cnc2c(n1)N(CC1CCC(O)CC1)CC(=O)N2 (stereo not shown) [C-143]	> 500	4	
COC1CCC(N2C(=O)CNc3ncc(-c4ccc(-c5ncn[nH]5)nc4)nc32)CC1 (stereo not shown) [C-139]	> 500	40	
O=C1CN(CCC2CCOCC2)c2nc(-c3c[nH]c4ncccc34)cnc2N1 [C-169]	2820	419	
O=C1CNc2ncc(-c3cccc4[nH]ccc34)nc2N1CCC1CCOCC1 [C-145]	> 500	> 500	
Nc1cc(-c2cnc3c(n2)N(CCC2CCOCC2)C(=O)CN3)ccn1 [C-115]	> 500	> 500	
O=C1CNc2ncc(-c3ccc(-c4nc[nH]n4)nc3)nc2N1C1CCC(O)CC1 (stereo not shown) [C-140]	> 500	70	
Cc1cc(-c2nc[nH]n2)c(F)cc1-c1cnc2c(n1)N(C(C)C)CC(=O)N2 [C-120]	99	12	
O=C1CNc2ncc(-c3ccc(-c4nc[nH]n4)nc3)nc2N1C1CCOCC1 [C-152]	> 500	20	
Cc1cc(-c2nc[nH]n2)c(F)cc1-c1cnc2c(n1)N(CC1CCC(O)CC1)C(=O)CN2 (stereo not shown) [C-147]	> 500	< 1.5	
CNc1ccc(-c2cnc3c(n2)N(CCC2CCOCC2)C(=O)CN3)cn1 [C-114]	2030	184	
Cc1cc(-c2nc[nH]n2)c(F)cc1-c1cnc2c(n1)N(C(C)C)C(=O)CN2 [C-128]	1	21	
Cc1cc(-c2nc[nH]n2)c(F)cc1-c1cnc2c(n1)N(C1CCOCC1)CC(=O)N2 [C-122]	323	6	
Cc1cc(-c2nc[nH]n2)c(F)cc1-c1cnc2c(n1)N(C1CCC(O)CC1)CC(=O)N2 (stereo not shown) [C-133]	> 500	61	
O=C1CNc2ncc(-c3ccc(O)nc3)nc2N1CCC1CCOCC1 [C-113]	> 500	> 500	
COCCN1C(=O)CNc2ncc(-c3ccc(-c4ncn[nH]4)nc3)nc21 [C-151]	> 500	120	
CO[C@H]1CC[C@@H](N2CC(=O)Nc3ncc(-c4ccc(-c5nc[nH]n5)c(F)c4C)nc32)CC1 [C-110]	> 150	22	
O=C1CNc2ncc(-c3cccc4[nH]ncc34)nc2N1CCC1CCOCC1 [C-117]	> 5000	> 5000	
Cc1c(-c2cnc3c(n2)N(C2CCOCC2)CC(=O)N3)ccc(-c2nc[nH]n2)c1F [C-111]	> 150	58	
CCN1C(=O)CNc2ncc(-c3ccc4[nH]ccc4n3)nc21 [C-166]	> 500	> 500	
COC1CCC(N2CC(=O)Nc3ncc(-c4ccc(-c5ncn[nH]5)nc4)nc32)CC1 (stereo not shown) [C-136]	> 500	82	
